Data published in ChEMBL document CHEMBL5154757, “Phosphodiesters as GPR84 Antagonists for the Treatment of Ulcerative Colitis” (J Med Chem, 2022).

Key:
[1] = Tmax in CD-1 mouse at 5 mg/kg, po administered as single dose measured upto 24 hrs by LC-MS/MS analysis; assay type: ADME, organism-based; details: in vivo
[2] = MRT in CD-1 mouse at 2 mg/kg, iv administered as single dose measured upto 24 hrs by LC-MS/MS analysis; assay type: ADME, organism-based; details: in vivo
[3] = Half life in CD-1 mouse at 2 mg/kg, iv administered as single dose measured upto 24 hrs by LC-MS/MS analysis; assay type: ADME, organism-based; details: in vivo
[4] = Half life in CD-1 mouse at 5 mg/kg, po administered as single dose measured upto 24 hrs by LC-MS/MS analysis; assay type: ADME, organism-based; details: in vivo
[5] = AUC(0 to infinity) in CD-1 mouse at 2 mg/kg, iv administered as single dose measured upto 24 hrs by LC-MS/MS analysis; assay type: ADME, organism-based; parameters: time < 24 hrs, dose 2 mg/kg, route iv; details: in vivo
[6] = Oral bioavailability in CD-1 mouse at 5 mg/kg administered as single dose measured upto 24 hrs by LC-MS/MS analysis; assay type: ADME, organism-based; details: in vivo
[7] = Clearance in CD-1 mouse at 2 mg/kg, iv administered as single dose measured upto 24 hrs by LC-MS/MS analysis; assay type: ADME, organism-based; details: in vivo
[8] = AUC(0 to infinity) in CD-1 mouse at 5 mg/kg, po administered as single dose measured upto 24 hrs by LC-MS/MS analysis; assay type: ADME, organism-based; parameters: time < 24 hrs, dose 5 mg/kg, route po; details: in vivo
[9] = Volume of distribution at steady state in CD-1 mouse at 2 mg/kg, iv administered as single dose measured upto 24 hrs by LC-MS/MS analysis; assay type: ADME, organism-based; details: in vivo, read-out: Vdss
[10] = MRT in CD-1 mouse at 5 mg/kg, po administered as single dose measured upto 24 hrs by LC-MS/MS analysis; assay type: ADME, organism-based; details: in vivo
[11] = Cmax in CD-1 mouse at 5 mg/kg, po administered as single dose measured upto 24 hrs by LC-MS/MS analysis; assay type: ADME, organism-based; parameters: time < 24 hrs, dose 5 mg/kg, route po; details: in vivo
[12] = Drug distribution in C57 mouse ileum at 5 mg/kg, po administered as single dose measured upto 8 hrs by LC-MS/MS analysis; assay type: ADME, organism-based; details: in vivo
HEK293 = assay: Cytotoxicity against HEK293 cells assessed as inhibition of cell growth upto 100 uM measured after 24 hrs by ATPlite assay; assay type: toxicity, cell-based; details: human, hek293, 24 h
[13] = target: G-protein coupled receptor 84 (Mus musculus) (UniProt Q8CIM5); assay: Antagonist activity at GPR84 expressed in mouse bone marrow cells assessed as reduction in 6-OAU induced migration in neutrophils incubated for 90 mins by flow cytometry; assay type: functional, cell-based; details: Bone marrow cell, filed as antagonist, dose 0.01-1 µM, DDE = dose-dependent effect
Mus musculus [14] = assay: Anti-colitis activity against DSS-induced ulcerative colitis mouse model assessed as attenuation of stool thinning administered orally once daily for 7 consecutive days; assay type: functional, organism-based; details: dose 25-100 mg/kg, route po, DDE = dose-dependent effect
[15] = Drug distribution in C57 mouse jejunum at 5 mg/kg, po administered as single dose measured upto 8 hrs by LC-MS/MS analysis; assay type: ADME, organism-based; details: in vivo
[16] = Mutagenecity in Salmonella typhimurium TA100 in presence of S9 fraction at 1000 ug by Ames test; assay type: toxicity, subcellular, Salmonella enterica subsp. enterica serovar Typhimurium; details: dose 1000 µg
[17] = Mutagenecity in Salmonella typhimurium TA98 in absence of S9 fraction at 1000 ug by Ames test; assay type: toxicity, Salmonella enterica subsp. enterica serovar Typhimurium; details: in vivo; dose 1000 µg
[18] = Drug distribution in DSS-induced ulcerative colitis mouse jejunum at 5 mg/kg, po administered as single dose measured upto 8 hrs by LC-MS/MS analysis; assay type: ADME, organism-based; details: in vivo
Bone marrow cell = assay: Cytotoxicity against bone marrow cells (unknown origin) assessed as inhibition of cell growth upto 10 uM measured after 1.5 to 2 hrs by ATPlite assay; assay type: toxicity, cell-based; details: time 1.5-2 hrs
[19] = target: G-protein coupled receptor 84 (Mus musculus, UniProt Q8CIM5); assay: Antagonist activity at mouse GPR84 expressed in HEK293 cells assessed as reduction in 6-OAU induced intracellular calcium response preincubated for 10 mins followed by agonist addition and measured after 1 min by calcium mobilization assay; assay type: functional, cell-based
[20] = Drug distribution in C57 mouse liver at 3 mg/kg, iv administered as single dose measured upto 8 hrs by LC-MS/MS analysis; assay type: ADME, organism-based; details: in vivo
Mus musculus [21] = assay: Anti-colitis activity against DSS-induced ulcerative colitis mouse model assessed as reduction in DAI score administered orally once daily for 7 consecutive days; assay type: functional, organism-based; details: dose 25-100 mg/kg, route po, DDE = dose-dependent effect
[22] = target: G-protein coupled receptor 84 (Mus musculus) (UniProt Q8CIM5); assay: Antagonist activity at GPR84 expressed in mouse bone marrow cells assessed as reduction in 6-OAU/3-OH-C12 induced migration in monocytes incubated for 90 mins by flow cytometry; assay type: functional, cell-based; details: Bone marrow cell, filed as antagonist, dose 0.01-1 µM, DDE = dose-dependent effect
[23] = Drug distribution in DSS-induced ulcerative colitis mouse colon at 5 mg/kg, po administered as single dose measured upto 8 hrs by LC-MS/MS analysis; assay type: ADME, organism-based; details: in vivo
[24] = Mutagenecity in Salmonella typhimurium TA100 in absence of S9 fraction at 1000 ug by Ames test; assay type: toxicity, Salmonella enterica subsp. enterica serovar Typhimurium; details: in vivo; dose 1000 µg
[25] = target: G-protein coupled receptor 84 (Mus musculus) (UniProt Q8CIM5); assay: Antagonist activity at GPR84 expressed in mouse bone marrow cells assessed as reduction in 3-OH-C12 induced migration in neutrophils incubated for 90 mins by flow cytometry; assay type: functional, cell-based; details: Bone marrow cell, filed as antagonist, dose 0.01-1 µM, DDE = dose-dependent effect
[26] = Mutagenecity in Salmonella typhimurium TA98 in presence of S9 fraction at 1000 ug by Ames test; assay type: toxicity, subcellular, Salmonella enterica subsp. enterica serovar Typhimurium; details: dose 1000 µg
Mus musculus [27] = assay: Anti-colitis activity against DSS-induced ulcerative colitis mouse model assessed as attenuation of weight loss administered orally once daily for 7 consecutive days; assay type: functional, organism-based; details: dose 25-100 mg/kg, route po, DDE = dose-dependent effect
[28] = Drug distribution in C57 mouse duodenum at 5 mg/kg, po administered as single dose measured upto 8 hrs by LC-MS/MS analysis; assay type: ADME, organism-based; details: in vivo
[29] = target: G-protein coupled receptor 84 (Mus musculus) (UniProt Q8CIM5); assay: Antagonist activity at GPR84 expressed in mouse bone marrow cells assessed as reduction in 3-OH-C12 induced migration in monocytes incubated for 90 mins by flow cytometry; assay type: functional, cell-based; details: Bone marrow cell, filed as antagonist, dose 0.01-1 µM, DDE = dose-dependent effect
[30] = Drug distribution in C57 mouse colon at 5 mg/kg, po administered as single dose measured upto 8 hrs by LC-MS/MS analysis; assay type: ADME, organism-based; details: in vivo
Mus musculus [31] = assay: Anti-colitis activity against DSS-induced ulcerative colitis mouse model assessed as attenuation of rectal bleeding administered orally once daily for 7 consecutive days; assay type: functional, organism-based; details: dose 25-100 mg/kg, route po, DDE = dose-dependent effect
[32] = target: G-protein coupled receptor 84 (Homo sapiens, UniProt Q9NQS5); assay: Antagonist activity at human GPR84 expressed in HEK293 cells co-expressing Galpha16 assessed as reduction in 6-OAU induced intracellular calcium response preincubated for 10 mins followed by agonist addition and measured after 1 min by calcium mobilization assay; assay type: functional, cell-based
G-protein coupled receptor 84 (Homo sapiens, UniProt Q9NQS5), sequence (Q9NQS5 whole entry): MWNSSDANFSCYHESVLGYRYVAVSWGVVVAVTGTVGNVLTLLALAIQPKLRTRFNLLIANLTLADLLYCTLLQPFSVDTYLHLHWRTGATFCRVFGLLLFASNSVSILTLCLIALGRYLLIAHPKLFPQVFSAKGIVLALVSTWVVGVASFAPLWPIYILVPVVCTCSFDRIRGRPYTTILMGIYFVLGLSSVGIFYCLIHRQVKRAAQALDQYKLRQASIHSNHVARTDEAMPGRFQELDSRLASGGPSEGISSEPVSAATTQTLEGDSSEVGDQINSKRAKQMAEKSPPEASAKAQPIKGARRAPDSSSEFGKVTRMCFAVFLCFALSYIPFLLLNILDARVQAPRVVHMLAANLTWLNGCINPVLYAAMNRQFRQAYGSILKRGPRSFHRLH

G-protein coupled receptor 84 (Mus musculus), sequence (Q8CIM5 whole entry): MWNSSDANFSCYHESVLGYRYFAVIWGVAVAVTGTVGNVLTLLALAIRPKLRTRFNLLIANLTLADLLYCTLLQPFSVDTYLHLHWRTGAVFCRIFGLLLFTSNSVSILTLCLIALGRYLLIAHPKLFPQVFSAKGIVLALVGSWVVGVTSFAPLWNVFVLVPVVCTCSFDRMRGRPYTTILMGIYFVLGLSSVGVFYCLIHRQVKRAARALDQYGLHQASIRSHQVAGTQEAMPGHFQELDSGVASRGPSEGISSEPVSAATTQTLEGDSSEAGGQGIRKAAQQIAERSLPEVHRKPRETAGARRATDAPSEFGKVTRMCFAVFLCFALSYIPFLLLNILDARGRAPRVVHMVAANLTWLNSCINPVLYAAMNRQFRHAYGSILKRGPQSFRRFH
G-protein coupled receptor 84 (Mus musculus, UniProt Q8CIM5), sequence (Q8CIM5 whole entry): as above

SMILES: COc1cccc2c1Sc1ccccc1C=C2OP(=O)([O-])OC1=Cc2ccccc2Sc2c(OC)cccc21.[Na+]
- Tmax [1]: 1 h
- MRT [2]: 1.82 h
- half-life [3]: 5.59 h
- half-life [4]: 4.99 h
- AUC(0-inf) [5]: 4640 ng·h/mL
- bioavailability [6]: 2.3%
- clearance [7]: 7.5 mL/min/kg
- AUC(0-inf) [8]: 236 ng·h/mL
- Vd [9]: 0.8 L/kg
- MRT [10]: 7.41 h
- Cmax [11]: 43.6 ng/mL

SMILES: O=P([O-])(OC1=Cc2c(Cl)cccc2Sc2ccccc21)OC1=Cc2c(Cl)cccc2Sc2ccccc21.[Na+]
- Drug uptake [12]: Active
- Activity (HEK293): Non-Toxic
- Tmax [1]: 2.67 h
- Activity [13]: Dde
- MRT [2]: 2.26 h
- Activity (Mus musculus [14]): Dde
- half-life [3]: 5.12 h
- Drug uptake [15]: Active
- Activity [16]: Non-Toxic
- Activity [17]: Non-Toxic
- Drug uptake [18]: Active
- Activity (Bone marrow cell): Non-Toxic
- half-life [4]: 4.39 h
- AUC(0-inf) [5]: 1710 ng·h/mL
- IC50 [19]: 273 nM
- bioavailability [6]: 11.9%
- clearance [7]: 20.3 mL/min/kg
- Drug uptake [20]: Active
- Activity (Mus musculus [21]): Dde
- Activity [22]: Dde
- Drug uptake [23]: Active
- AUC(0-inf) [8]: 517 ng·h/mL
- Activity [24]: Non-Toxic
- Activity [25]: Dde
- Vd [9]: 2.98 L/kg
- Activity [26]: Non-Toxic
- Activity (Mus musculus [27]): Dde
- Drug uptake [28]: Active
- MRT [10]: 7.09 h
- Cmax [11]: 81.8 ng/mL
- Activity [29]: Dde
- Drug uptake [30]: Active
- Activity (Mus musculus [31]): Dde

SMILES: COP(=O)(OC1=Cc2ccccc2Sc2ccccc21)OC1=Cc2ccccc2Sc2ccccc21
- IC50 [32]: > 100000 nM

SMILES: O=P(O)(Oc1ccccc1)Oc1ccccc1
- IC50 [32]: > 100000 nM

SMILES: O=P(O)(O)OC1=Cc2ccccc2Sc2ccccc21
- IC50 [32]: > 100000 nM

SMILES: COc1cccc2c1Sc1cccc(F)c1C=C2OP(=O)([O-])OC1=Cc2c(F)cccc2Sc2c(OC)cccc21.[Na+]
- Tmax [1]: 0.42 h
- MRT [2]: 1.89 h
- half-life [3]: 5.75 h
- half-life [4]: 1.91 h
- AUC(0-inf) [5]: 7760 ng·h/mL
- bioavailability [6]: 0.91%
- clearance [7]: 4.33 mL/min/kg
- AUC(0-inf) [8]: 178 ng·h/mL
- Vd [9]: 0.5 L/kg
- MRT [10]: 2.21 h
- Cmax [11]: 74.3 ng/mL

SMILES: O=P(O)(CC1=Cc2ccccc2Sc2ccccc21)CC1=Cc2ccccc2Sc2ccccc21
- IC50 [32]: 1930 nM

SMILES: O=c1nc(OC[C@@H]2COCCO2)cc2n1CCc1cc(C#CC3CC3)ccc1-2
- Activity [13]: Dde
- Activity [22]: Dde
- Activity [25]: Dde
- Activity [29]: Dde

SMILES: O=c1nc(OCC2COCCO2)cc2n1CCc1cc(OCc3ccccn3)ccc1-2 (stereo unspecified)
- IC50 [32]: 716 nM

SMILES: O=P([O-])(OC1=Cc2ccccc2Sc2ccccc21)OC1=Cc2ccccc2Sc2ccccc21.[Na+]
- Tmax [1]: 1.67 h
- MRT [2]: 0.932 h
- half-life [3]: 1.14 h
- half-life [4]: 1.62 h
- AUC(0-inf) [5]: 1420 ng·h/mL
- IC50 [19]: 454 nM
- bioavailability [6]: 15.7%
- clearance [7]: 23.7 mL/min/kg
- AUC(0-inf) [8]: 562 ng·h/mL
- Vd [9]: 1.31 L/kg
- MRT [10]: 4.05 h
- Cmax [11]: 192 ng/mL
